Laboratory results taken from US20230120211A1, “HDAC Degrader” (University of Leicester, priority 2020, published 2023).
pIC50: −log10 of the molar value.

Tests used:
HDAC1 [1] = target: T1, HDAC1 (Homo sapiens, UniProt Q13547); experiment: HDAC1 degradation in HCT116 cells, quantitative western blot; assay type: cell-based; details: for Dmax: HCT-116, 24 h, read-out: HDAC1 Degrader (% Degradation)
T1 construct: endogenous in cells; host or cells: HCT116
Experimental: (§1) The compounds were screened at 0.1 μM, 1 μM and 10 μM in a HCT116 cell line. The maximum degradation observed irrespective of the concertation was recorded. The screening of the new compounds was done in 6-well plates, 5 mL media, with 400,000 cells per well to increase throughput.
(§2) HCT116 or mES cells were treated 24 hours after seeding. 24 hours post treatment, cells were harvested, lysed in lysis buffer (50 mM Tris-HCl, 150 mM NaCl, 0.5% NP-40, 0.5% Triton X-100) with protease inhibitor (Sigma, P8340), then incubated on ice for 30 minutes, before being centrifuged (18,000 ref, 15 minutes, 4° C.). The supernatant was collected, and protein concentrations quantified via Bradford Assay using Protein Assay Dye Reagent Concentrate (BIO-RAD). For histone extraction, an equal volume of 0.4 N H2SO4 was added to the pellets and the extracts placed at 4° C. overnight. Following overnight incubation, the tubes were centrifuged (18,000 ref, 15 minutes, 4° C.) and then the supernatant (histone extract) collected.
(§3) PageRuler™ Plus Prestained Ladder was used for size standards. After gel electrophoresis at 140V for 75-90 minutes the separated proteins were transferred onto nitrocellulose membrane at 30V for 60 minutes. The membranes were probed with primary antibodies (listed below) for 60-90 minutes. Blots were developed with complimentary IRDye conjugated secondary antibodies and the bands visualised using the Odyssey Infrared Imaging System. Image processing and band intensity quantification was performed using Image Studio Lite.

HDAC2 [2] = target: T2, HDAC2 (Homo sapiens, UniProt Q92769); experiment: HDAC2 degradation in HCT116 cells, quantitative western blot; assay type: cell-based; details: for Dmax: HCT-116, 24 h, read-out: HDAC 2 Degrader (% Degradation)
T2 construct: endogenous in cells; host or cells: HCT116
Experimental: as §1, §2, §3

HDAC3 = target: T3, HDAC3 (Homo sapiens, UniProt O15379); experiment: HDAC3 degradation in HCT116 cells, quantitative western blot; assay type: cell-based; details: for Dmax: HCT-116, 24 h, HCT116, screened at 0.1, 1 and 10 μM, maximum degradation irrespective of concentration, read-out: HDAC 3 degrader (% Degradation)
T3 construct: endogenous in cells; host or cells: HCT116
Experimental: as §1, §2, §3

H3K56Ac [3] = experiment: Increase of H3K56Ac (Table 1 screen); assay type: cell-based, human; details: HCT116 screen; cell line not restated at the table
Experimental: as §1, §2
as §3, with “Western blots were run on NuPAGE™ 4-12% Bis-Tris gels with 20-30 μg of protein or 10 μL of acid-extracted histone loaded per lane, using NuPAGE™ LDS Sample Buffer (4×). PageRuler™” for “PageRuler™”

[4] = target: LSD1-CoREST-HDAC1 complex (Homo sapiens, UniProt Q13547); experiment: fluorescent deacetylase assay with the LSD1-CoREST-HDAC1 complex (Example 2, FIG. 3A); assay type: biochemical
Experimental: The inventors evaluated their preliminary PROTACs in vitro using an established fluorescent deacetylase assay with the LSD1-CoREST-HDAC1 complex. This complex was used as an exemplary HDAC multiprotein complex to determine if such heterobifunctional molecules PROTACs 1-4 can still engage the HDAC enzyme in the context of an intact multiprotein complex.
(§4) Inhibition tests against LSD1-HDAC-CoREST complex were performed using a two-enzyme fluorescence-based HDAC assay. The inhibitor/PROTACs were dissolved at 50 mM in DMSO, then 1:2 serial dilutions performed using HDAC assay buffer (50 mM Tris pH 7.5, 150 mM NaCl) to afford range of concentrations.
(§5) The assays were performed in black 96-well plates with a reaction volume of 50 μL per well. All determinations were performed in triplicate. […] After an incubation of 20 minutes at 37° C. and 150 rpm, deacetylation was stopped by the addition of 50 μL of a developing solution containing trypsin (50 mM Tris pH 7.5, 100 mM NaCl, 10 mg/mL trypsin). […] HDAC Activity was calculated by subtracting the average blank fluorescence from the well fluorescence. Graphpad Prism software was utilised to determine IC50 values.

CoREST = CoREST (Homo sapiens, UniProt Q13547); experiment: HDAC inhibition assay, CoREST complex (Table 1, run under different conditions); assay type: biochemical; details: Table 1 conditions (differ from FIG. 3)
Experimental: as §4, §5

NuRD = NuRD (Homo sapiens, UniProt Q13547); experiment: HDAC inhibition assay, NuRD complex (Table 1); assay type: biochemical
MiDAC = MiDAC (Homo sapiens, UniProt Q13547); experiment: HDAC inhibition assay, MiDAC complex (Table 1); assay type: biochemical
SMRT = SMRT (Homo sapiens, UniProt O15379); experiment: HDAC inhibition assay, SMRT complex (Table 1); assay type: biochemical
H3K56ac [5] = experiment: H3K56ac levels in E14 mouse embryonic stem cells, quantitative western blot; assay type: cell-based; details: E14 mES cells, 24 h; CI-994 40 μM, Panobinostat 30 nM
Experimental: The inventors proceeded to assess their compounds effects on HDAC activity in cells.
To examine the ability of PROTACs 1-4 to reduce HDAC1, 2 and 3 activity in cells they began by measuring H3K56ac using quantitative western blotting (see FIG. 3B).
as §2
as §3, with “Western blots were run on NuPAGE™ 4-12% Bis-Tris gels with 20-30 μg of protein or 10 μL of acid-extracted histone loaded per lane, using NuPAGE™ LDS Sample Buffer (4×). PageRuler™” for “PageRuler™”

H3K9ac = experiment: Histone H3 Lys9 acetylation levels in HCT116 cells; assay type: cell-based, human; details: HCT116, 24 h, 10 μM
Experimental: Acetylation levels of Histone H3 Lys9 (H3K9ac), another established residue for HDAC activity, were also determined in HCT116 cells after 24 hours treatment with PROTAC 4.
as §2
Western blots were run on NuPAGE™ 4-12% Bis-Tris gels with 20-30 μg of protein or 10 μL of acid-extracted histone loaded per lane, using NuPAGE™ LDS Sample Buffer (4×). PageRuler™ Plus Prestained Ladder was used for size standards. After gel electrophoresis at 140V for 75-90 minutes the separated proteins were transferred onto nitrocellulose membrane at 30V for 60 minutes. […] Image processing and band intensity quantification was performed using Image Studio Lite.

[6] = test system: HCT116 colon cancer cell line; experiment: Cell cycle / cell death by FACS in HCT116 colon cancer cell line; assay type: cell-based, human; details: HCT116, 48 hours, 10 μM
Experimental: The inventors then investigated the effect of PROTAC 4 on the cell cycle in the colon cancer HCT116 cell line.
[…] Cells were washed in PBS prior to incubation with […] of propidium iodide and RNase A (10 μg/mL) for 30 min at room temperature in the dark. Samples were analysed using the BD FACSCanto II flow cytometer (BD Biosciences) in the PE A channel with BD FACSDiva software.

HDAC1 [7] = target: T1, HDAC1; experiment: HDAC1 degradation in HCT116 cells, quantitative western blot; assay type: cell-based; details: HCT116, 24 h, 10 nM
HDAC2 [8] = target: T2, HDAC2; experiment: HDAC2 degradation in HCT116 cells, quantitative western blot; assay type: cell-based; details: HCT116, 24 h, 10 nM
[9] = HCT116, screened at 0.1, 1 and 10 μM, maximum degradation irrespective of concentration
[10] = HCT116, 24 h, 1 μM, remaining level

Chain of CoREST (Q13547 whole entry, other chains not shown): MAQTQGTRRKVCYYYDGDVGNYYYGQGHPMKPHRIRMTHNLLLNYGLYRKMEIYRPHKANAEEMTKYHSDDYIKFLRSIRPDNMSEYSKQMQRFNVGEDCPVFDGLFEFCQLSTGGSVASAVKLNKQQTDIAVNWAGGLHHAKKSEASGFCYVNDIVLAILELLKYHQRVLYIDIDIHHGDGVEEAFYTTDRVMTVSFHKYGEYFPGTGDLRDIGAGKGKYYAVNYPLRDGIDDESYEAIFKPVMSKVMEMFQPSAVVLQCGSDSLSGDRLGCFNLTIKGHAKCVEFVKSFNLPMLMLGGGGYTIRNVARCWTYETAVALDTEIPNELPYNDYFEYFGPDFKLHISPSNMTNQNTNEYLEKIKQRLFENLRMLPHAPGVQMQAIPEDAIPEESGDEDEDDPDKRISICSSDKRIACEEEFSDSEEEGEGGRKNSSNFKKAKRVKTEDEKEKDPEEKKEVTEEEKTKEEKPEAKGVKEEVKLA
Chain of CoREST (Q9UKL0 86-485 partner limits assumed, other chains not shown): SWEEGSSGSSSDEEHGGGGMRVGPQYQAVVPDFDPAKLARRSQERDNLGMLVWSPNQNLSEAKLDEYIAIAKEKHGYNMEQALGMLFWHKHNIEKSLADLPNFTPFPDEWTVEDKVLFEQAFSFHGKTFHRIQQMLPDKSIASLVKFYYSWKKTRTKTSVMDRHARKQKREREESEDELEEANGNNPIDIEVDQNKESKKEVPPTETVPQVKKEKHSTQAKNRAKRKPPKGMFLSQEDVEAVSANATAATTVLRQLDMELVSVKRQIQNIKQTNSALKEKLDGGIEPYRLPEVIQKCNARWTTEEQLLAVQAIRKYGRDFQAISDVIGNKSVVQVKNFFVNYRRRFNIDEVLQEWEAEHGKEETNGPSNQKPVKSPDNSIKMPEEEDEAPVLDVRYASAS
T1 sequence (Q13547 whole entry): as the sequence (Q13547 whole entry, other chains not shown) above
T2 sequence (Q92769 whole entry): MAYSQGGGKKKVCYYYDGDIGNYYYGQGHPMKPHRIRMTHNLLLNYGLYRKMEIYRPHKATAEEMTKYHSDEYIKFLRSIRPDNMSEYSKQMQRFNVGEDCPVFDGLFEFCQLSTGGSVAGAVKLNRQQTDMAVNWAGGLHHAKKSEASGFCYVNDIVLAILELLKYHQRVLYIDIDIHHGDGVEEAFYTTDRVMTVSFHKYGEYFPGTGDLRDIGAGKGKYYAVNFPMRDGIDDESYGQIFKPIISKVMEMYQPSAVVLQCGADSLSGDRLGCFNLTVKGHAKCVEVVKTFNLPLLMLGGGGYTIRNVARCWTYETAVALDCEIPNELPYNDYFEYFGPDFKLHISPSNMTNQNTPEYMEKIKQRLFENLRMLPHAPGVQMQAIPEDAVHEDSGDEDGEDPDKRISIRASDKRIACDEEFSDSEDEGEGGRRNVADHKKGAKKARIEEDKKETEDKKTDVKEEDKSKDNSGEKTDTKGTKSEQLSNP
Chain of SMRT (O15379 whole entry): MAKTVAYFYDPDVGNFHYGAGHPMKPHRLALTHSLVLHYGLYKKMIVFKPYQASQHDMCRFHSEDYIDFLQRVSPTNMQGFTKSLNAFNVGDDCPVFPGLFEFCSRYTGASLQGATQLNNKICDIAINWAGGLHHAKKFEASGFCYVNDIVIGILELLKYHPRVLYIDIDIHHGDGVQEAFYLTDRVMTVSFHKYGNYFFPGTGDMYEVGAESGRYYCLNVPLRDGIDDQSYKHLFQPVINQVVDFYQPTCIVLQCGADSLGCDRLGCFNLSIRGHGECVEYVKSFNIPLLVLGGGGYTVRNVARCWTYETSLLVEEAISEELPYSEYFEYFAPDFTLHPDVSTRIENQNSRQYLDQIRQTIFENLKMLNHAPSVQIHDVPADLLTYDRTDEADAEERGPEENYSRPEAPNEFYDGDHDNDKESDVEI
Chain of SMRT (Q9Y618 389-480 partner limits assumed): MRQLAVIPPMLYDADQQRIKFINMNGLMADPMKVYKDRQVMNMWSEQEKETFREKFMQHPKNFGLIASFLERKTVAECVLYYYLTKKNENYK
T3 sequence (O15379 whole entry): as the sequence (O15379 whole entry) above
Chain of LSD1-CoREST-HDAC1 complex (Q13547 whole entry, other chains not shown): as the sequence (Q13547 whole entry, other chains not shown) above
Chain of LSD1-CoREST-HDAC1 complex (Q9UKL0 86-485 partner limits assumed, other chains not shown): as the sequence (Q9UKL0 86-485 partner limits assumed, other chains not shown) above
Chain of NuRD (Q13547 whole entry): as the sequence (Q13547 whole entry, other chains not shown) above
Chain of NuRD (Q13330 162-546 partner limits assumed): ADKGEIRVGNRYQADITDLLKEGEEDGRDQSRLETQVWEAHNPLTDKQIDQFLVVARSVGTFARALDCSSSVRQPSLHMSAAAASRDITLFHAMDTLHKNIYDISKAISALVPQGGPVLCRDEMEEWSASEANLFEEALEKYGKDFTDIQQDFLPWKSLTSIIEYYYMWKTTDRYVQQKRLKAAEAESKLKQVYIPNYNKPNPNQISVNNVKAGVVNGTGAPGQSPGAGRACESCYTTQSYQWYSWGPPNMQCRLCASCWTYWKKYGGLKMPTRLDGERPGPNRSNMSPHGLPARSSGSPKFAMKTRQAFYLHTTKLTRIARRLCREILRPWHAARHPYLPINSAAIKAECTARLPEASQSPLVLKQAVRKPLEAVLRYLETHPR
Chain of NuRD (Q09028 whole entry partner): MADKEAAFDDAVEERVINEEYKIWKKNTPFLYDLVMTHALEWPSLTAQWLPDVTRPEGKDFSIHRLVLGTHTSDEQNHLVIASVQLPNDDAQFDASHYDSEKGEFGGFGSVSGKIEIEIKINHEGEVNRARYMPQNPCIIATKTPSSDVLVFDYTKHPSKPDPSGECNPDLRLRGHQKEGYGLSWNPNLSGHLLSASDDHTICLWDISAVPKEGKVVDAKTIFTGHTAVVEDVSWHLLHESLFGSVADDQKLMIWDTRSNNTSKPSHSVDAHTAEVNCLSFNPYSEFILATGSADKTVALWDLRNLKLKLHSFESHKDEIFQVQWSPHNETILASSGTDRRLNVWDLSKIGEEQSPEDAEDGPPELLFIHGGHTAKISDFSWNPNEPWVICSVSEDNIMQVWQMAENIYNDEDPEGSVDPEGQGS
Chain of MiDAC (Q13547 whole entry): as the sequence (Q13547 whole entry, other chains not shown) above
Chain of MiDAC (Q6PJG2 628-887 partner limits assumed): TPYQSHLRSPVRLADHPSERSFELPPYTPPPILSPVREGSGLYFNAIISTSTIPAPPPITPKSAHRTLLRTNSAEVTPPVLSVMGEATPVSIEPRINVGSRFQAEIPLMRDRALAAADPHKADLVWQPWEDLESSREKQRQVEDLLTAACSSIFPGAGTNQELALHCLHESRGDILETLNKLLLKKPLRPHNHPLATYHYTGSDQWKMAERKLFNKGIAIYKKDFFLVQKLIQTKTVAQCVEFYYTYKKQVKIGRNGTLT
Chain of MiDAC (Q9H147 whole entry partner): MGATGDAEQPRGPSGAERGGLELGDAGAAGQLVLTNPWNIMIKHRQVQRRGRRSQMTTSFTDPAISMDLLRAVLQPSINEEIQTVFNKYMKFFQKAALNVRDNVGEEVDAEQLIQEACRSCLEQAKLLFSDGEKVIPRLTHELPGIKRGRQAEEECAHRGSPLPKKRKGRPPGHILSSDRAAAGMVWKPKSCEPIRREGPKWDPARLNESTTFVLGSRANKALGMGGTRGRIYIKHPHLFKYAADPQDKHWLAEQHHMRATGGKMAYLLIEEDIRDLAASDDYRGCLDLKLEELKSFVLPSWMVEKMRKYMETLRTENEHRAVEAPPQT

Row | Structure (SMILES) | Dmax (HDAC3) [%] | Increase H3K56Ac (Y/N/partial) (H3K56Ac [3]) | pIC50 (CoREST) | pIC50 (NuRD) | pIC50 (MiDAC) | pIC50 (SMRT) | Dmax (HDAC1 [1]; [9]) [%] | Dmax (HDAC2 [2]; [9]) [%] | further results
1 | CN[C@@H](C)C(=O)N[C@H](C(=O)N1C[C@@H](NC(=O)COCCOCCOCC(=O)Nc2ccc(C(=O)Nc3ccccc3N)cc2)C[C@H]1C(=O)N[C@@H]1CCCc2ccccc21)C1CCCCC1 [PROTAC28, (2S,4S)-4-(2-(2-(2-(2-((4-((2-aminophenyl)carbamoyl)phenyl)amino)-2-oxoethoxy)ethoxy)ethoxy)acetamido)-1-((S)-2-cyclohexyl-2-((S)-2-(methylamino)propanamido)acetyl)-N-((R)-1,2,3,4-tetrahydronaphthalen-1-yl)pyrrolidine-2-carboxamide] | 57 | partial | – | – | – | – | – | – | HDAC1 Degrader (% Degradation) (HDAC1 [1]; [9]): No; HDAC 2 Degrader (% Degradation) (HDAC2 [2]; [9]): No
2 | CC(=O)Nc1ccc(C(=O)Nc2ccccc2NC(=O)OC(C)(C)C)cc1 [Compound 5, Tert-butyl (2-(4-acetamidobenzamido)phenyl)carbamate, reference compound] | – | – | – | – | – | – | – | – | HDAC inhibition ([4]; LSD1-CoREST-HDAC1 complex): no HDAC inhibition
3 | Cc1ncsc1-c1ccc(CNC(=O)[C@@H]2C[C@@H](O)CN2C(=O)[C@@H](NC(=O)CCCCCCCCCCC(=O)Nc2ccc(C(=O)Nc3ccccc3N)cc2)C(C)(C)C)cc1 [PROTAC4, N1-(4-((2-aminophenyl)carbamoyl)phenyl)-N12-((S)-1-((2S,4R)-4-hydroxy-2-((4-(4-methylthiazol-5-yl)benzyl)carbamoyl)pyrrolidin-1-yl)-3,3-dimethyl-1-oxobutan-2-yl)dodecanediamide] | 63 | – | 6.40 | 6.38 | 6.47 | 6.38 | 85 | 76 | pIC50 ([4]; LSD1-CoREST-HDAC1 complex in vitro): 4.77; HDAC1 degradation (HDAC1 [1]; HCT116, 24 h, 1 μM): approximately 50%; HDAC1 level (DMSO control = 100%) (HDAC1 [1]; [10]): 40-48%; HDAC1 degradation (HDAC1 [1]; HCT116, 24 h, 10 μM): near complete degradation; HDAC2 degradation (HDAC2 [2]; HCT116, 24 h, 1 μM): approximately 50%; HDAC2 level (DMSO control = 100%) (HDAC2 [2]; [10]): 40-48%; HDAC2 degradation (HDAC2 [2]; HCT116, 24 h, 10 μM): near complete degradation; HDAC3 degradation (HDAC3; HCT116, 24 h, 1 μM): approximately 50%; HDAC3 level (DMSO control = 100%) (HDAC3; [10]): 40-48%; HDAC3 levels (HDAC3; HCT116, 24 h, 10 μM): decreased; H3K56 acetylation level (H3K56ac [5]): increase in acetylation to similar levels; H3K9 acetylation levels compared to DMSO control (H3K9ac): highly elevated; cell death [6]: significant cell death; HDAC1 levels (HDAC1 [7]): not recovered; HDAC2 levels (HDAC2 [8]): not recovered
4 | Cc1ncsc1-c1ccc(CNC(=O)[C@@H]2C[C@@H](O)CN2C(=O)[C@@H](NC(=O)COCCCCCCCCC(=O)Nc2ccc(C(=O)Nc3ccccc3N)cc2)C(C)(C)C)cc1 [PROTAC13, (2S,4R)-1-((S)-2-(2-((9-((4-((2-aminophenyl)carbamoyl)phenyl)amino)-9-oxononyl)oxy)acetamido)-3,3-dimethylbutanoyl)-4-hydroxy-N-(4-(4-methylthiazol-5-yl)benzyl)pyrrolidine-2-carboxamide] | 69 | – | 6.07 | 5.93 | 5.84 | 6.46 | 58 | 52 | –
5 | Cc1ncsc1-c1ccc(CNC(=O)[C@@H]2C[C@@H](O)CN2C(=O)[C@@H](NC(=O)COCCCCCCCCCOCC(=O)Nc2ccc(C(=O)Nc3ccc(F)cc3N)cc2)C(C)(C)C)cc1 [PROTAC20, (2S,4R)-1-((S)-2-(2-((9-(2-((4-((2-amino-4-fluorophenyl)carbamoyl)phenyl)amino)-2-oxoethoxy)nonyl)oxy)acetamido)-3,3-dimethylbutanoyl)-4-hydroxy-N-(4-(4-methylthiazol-5-yl)benzyl)pyrrolidine-2-carboxamide] | 67 | partial | – | – | – | – | 51 | 26 | –
6 | Cc1ncsc1-c1ccc(CNC(=O)[C@@H]2C[C@@H](O)CN2C(=O)[C@@H](NC(=O)CCCCCCCCCCC(=O)Nc2ccc(C(=O)Nc3ccc(F)cc3N)cc2)C(C)(C)C)cc1 [PROTAC17, N1-(4-((2-amino-4-fluorophenyl)carbamoyl)phenyl)-N12-((S)-1-((2S,4R)-4-hydroxy-2-((4-(4-methylthiazol-5-yl)benzyl)carbamoyl)pyrrolidin-1-yl)-3,3-dimethyl-1-oxobutan-2-yl)dodecanediamide] | 46 | partial | 5.42 | – | – | 6.07 | 58 | 21 | –
